ChEMBL document CHEMBL3272192, “Thyroxine analogues. 23. Quantitative structure-activity correlation studies of in vivo and in vitro thyromimetic activities” (1977)

Tests used:
[1] = species on record: Rattus norvegicus; assay: Displacement of radiolabelled L-T3 from thyroid hormone receptor in intact rat hepatic nuclei relative to T3
[2] = test system: Rattus norvegicus; assay: In vivo antigoiter activity in rat; type: functional
[3] = target: T1, Thyroxine-binding globulin (Homo sapiens) (UniProt P05543); assay: Binding affinity to thyroxine binding globulin (unknown origin) relative to T4
T1 sequence (whole entry): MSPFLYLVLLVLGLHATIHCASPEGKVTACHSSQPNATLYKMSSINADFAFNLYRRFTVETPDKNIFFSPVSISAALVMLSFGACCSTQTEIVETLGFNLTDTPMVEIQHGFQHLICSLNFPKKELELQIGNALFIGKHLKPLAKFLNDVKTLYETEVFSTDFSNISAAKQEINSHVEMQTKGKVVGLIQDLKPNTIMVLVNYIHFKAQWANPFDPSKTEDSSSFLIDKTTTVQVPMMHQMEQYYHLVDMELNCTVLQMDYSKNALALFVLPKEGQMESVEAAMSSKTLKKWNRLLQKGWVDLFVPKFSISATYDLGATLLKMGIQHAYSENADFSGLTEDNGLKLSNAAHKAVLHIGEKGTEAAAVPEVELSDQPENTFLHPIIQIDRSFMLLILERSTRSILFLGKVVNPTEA

CC(C)c1cc(CC(N)C(=O)O)cc(C(C)C)c1Oc1ccc(O)c(I)c1 (centres undefined)
RBA [1]: 0.2%

NC(Cc1cc(I)c(Oc2ccc(O)c(F)c2)c(I)c1)C(=O)O (centres undefined)
Activity [2]: 0.65%
log(%) [2]: -0.785

CC(C)(C)c1cc(Oc2c(I)cc(CC(N)C(=O)O)cc2I)ccc1O (centres undefined)
RBA [1]: 38.5%
log(%) [1]: 1.59
RBA [3]: 0.67%
log(%) [3]: -0.174
Activity [2]: 21.7%
log(%) [2]: 1.336

CC(C)c1cc(Oc2c(I)cc(CC(N)C(=O)O)cc2I)cc(C(C)C)c1O (centres undefined)
RBA [1]: 1.4%
log(%) [1]: 0.146

NC(Cc1cc(I)c(Oc2cccc(C(F)(F)F)c2)c(I)c1)C(=O)O (centres undefined)
RBA [1]: 0.2%
log(%) [1]: -0.699
Activity [2]: 13.56%
log(%) [2]: 1.132

Cc1cc(Oc2c(I)cc(CC(N)C(=O)O)cc2I)cc(C)c1O (centres undefined)
RBA [1]: 6.2%
log(%) [1]: 0.792
RBA [3]: 0.29%
log(%) [3]: -0.538
Activity [2]: 9.04%
log(%) [2]: 0.956

CCCc1cc(Oc2c(I)cc(CC(N)C(=O)O)cc2I)ccc1O (centres undefined)
Activity [2]: 39.5%
log(%) [2]: 1.597

CCC(C)c1cc(Oc2c(C)cc(CC(N)C(=O)O)cc2C)ccc1O (centres undefined)
Activity [2]: 2.91%
log(%) [2]: 0.464

Cc1cc(Oc2c(C)cc(CC(N)C(=O)O)cc2C)cc(C)c1O (centres undefined)
RBA [1]: 0.1%
log(%) [1]: -1
Activity [2]: 0.36%
log(%) [2]: -0.444

NC(Cc1cc(I)c(Oc2cc(Br)c(O)c(Br)c2)c(I)c1)C(=O)O (centres undefined)
Activity [2]: 1.58%
log(%) [2]: 0.199

NC(Cc1cc(I)c(Cc2cc(I)c(O)c(I)c2)c(I)c1)C(=O)O (centres undefined)
RBA [1]: 2.6%
log(%) [1]: 0.415

NC(Cc1cc(Br)c(Oc2cc(I)c(O)c(I)c2)c(Br)c1)C(=O)O (centres undefined)
Activity [2]: 1.97%
log(%) [2]: 0.294

NC(Cc1cc(I)c(Oc2cccc(Br)c2)c(I)c1)C(=O)O (centres undefined)
Activity [2]: 18%
log(%) [2]: 1.225

NC(Cc1cc(Br)c(Oc2ccc(O)c(I)c2)c(Br)c1)C(=O)O (centres undefined)
Activity [2]: 16.87%
log(%) [2]: 1.227

NC(Cc1cc(I)c(Oc2ccc(O)c(C3CCCCC3)c2)c(I)c1)C(=O)O (centres undefined)
RBA [1]: 1.4%
log(%) [1]: 0.146

NC(Cc1cc(Br)c(Oc2cc(Br)c(O)c(I)c2)c(I)c1)C(=O)O (centres undefined)
Activity [2]: 2.83%
log(%) [2]: 0.452

COc1ccc(Oc2c(I)cc(CC(N)C(=O)O)cc2I)cc1I (centres undefined)
Activity [2]: 11.25%
log(%) [2]: 1.051

NC(Cc1cc(I)c(Oc2ccc(O)c(Cl)c2)c(I)c1)C(=O)O (centres undefined)
RBA [1]: 6.2%
log(%) [1]: 0.792
Activity [2]: 4.88%
log(%) [2]: 0.688

NC(Cc1cc(I)c(Sc2ccc(O)cc2)c(I)c1)C(=O)O (centres undefined)
RBA [1]: 1.3%
log(%) [1]: 0.114

NC(Cc1cc(I)c(Oc2ccc(O)c(O)c2)c(I)c1)C(=O)O (centres undefined)
RBA [3]: 0.06%
log(%) [3]: -1.22
Activity [2]: 0.27%
log(%) [2]: -0.569

Cc1cc(CC(N)C(=O)O)ccc1Oc1ccc(O)c(I)c1 (centres undefined)
Activity [2]: 0.12%
log(%) [2]: -0.921

NC(Cc1cc(I)c(Oc2cccc(F)c2)c(I)c1)C(=O)O (centres undefined)
Activity [2]: 1.39%
log(%) [2]: 0.143

Nc1ccc(Oc2c(I)cc(CC(N)C(=O)O)cc2I)cc1 (centres undefined)
RBA [1]: 0.76%
log(%) [1]: -0.119
Activity [2]: 0.27%
log(%) [2]: -0.569

NC(Cc1cc(I)c(Oc2cccc(Cl)c2)c(I)c1)C(=O)O (centres undefined)
Activity [2]: 7.78%
log(%) [2]: 0.891

CC(C)Cc1cc(Oc2c(I)cc(CC(N)C(=O)O)cc2I)ccc1O (centres undefined)
RBA [1]: 20%
log(%) [1]: 1.3
RBA [3]: 0.1%
log(%) [3]: -1
Activity [2]: 7.74%
log(%) [2]: 0.889

Cc1cc(O)c(I)cc1Oc1c(I)cc(CC(N)C(=O)O)cc1I (centres undefined)
RBA [1]: 0.3%
log(%) [1]: -0.523
Activity [2]: 0.36%
log(%) [2]: -0.444

Cc1c(O)ccc(Oc2c(I)cc(CC(N)C(=O)O)cc2I)c1C (centres undefined)
RBA [1]: 1.1%
log(%) [1]: 0.041
Activity [2]: 9.04%
log(%) [2]: 0.956

NC(Cc1cc(I)c(Oc2ccc(O)c3ccccc23)c(I)c1)C(=O)O (centres undefined)
RBA [1]: 8%
log(%) [1]: 0.903

Cc1cc(C)cc(Oc2c(I)cc(CC(N)C(=O)O)cc2I)c1 (centres undefined)
Activity [2]: 0.054%
log(%) [2]: -0.839

Cc1cc(CC(N)C(=O)O)cc(C)c1Oc1ccc(O)c(C(C)C)c1 (centres undefined)
RBA [1]: 0.7%
log(%) [1]: -0.155
Activity [2]: 3.6%
log(%) [2]: 0.556

Cc1cc(Oc2c(I)cc(CC(N)C(=O)O)cc2I)ccc1O (centres undefined)
RBA [1]: 13.5%
log(%) [1]: 1.13
RBA [3]: 0.28%
log(%) [3]: -0.553
Activity [2]: 14.47%
log(%) [2]: 1.16

Cc1cc(Oc2c(C)cc(CC(N)C(=O)O)cc2C)ccc1O (centres undefined)
RBA [1]: 0.1%
log(%) [1]: -1
Activity [2]: 0.54%
log(%) [2]: -0.268

CCC(C)c1cc(Oc2c(I)cc(CC(N)C(=O)O)cc2I)ccc1O (centres undefined)
Activity [2]: 79.9%
log(%) [2]: 1.902

NC(Cc1cc(I)c(Oc2ccc(O)cc2)c(I)c1)C(=O)O (centres undefined)
RBA [1]: 0.3%
log(%) [1]: -0.523
RBA [3]: 0.07%
log(%) [3]: -1.16
Activity [2]: 0.81%
log(%) [2]: -0.092

NC(Cc1cc(Br)c(Oc2ccc(O)c(I)c2)c(I)c1)C(=O)O (centres undefined)
RBA [1]: 1.4%
log(%) [1]: 0.146
Activity [2]: 71.98%
log(%) [2]: 1.857

COc1ccc(Oc2c(I)cc(CC(N)C(=O)O)cc2I)cc1C(C)(C)C (centres undefined)
Activity [2]: 2.35%
log(%) [2]: 0.371

NC(Cc1cc(I)c(Cc2ccc(O)c(I)c2)c(I)c1)C(=O)O (centres undefined)
RBA [1]: 250%
log(%) [1]: 2.4
Activity [2]: 54.25%
log(%) [2]: 1.734

NC(Cc1ccc(Oc2cc(I)c(O)c(I)c2)c(I)c1)C(=O)O (centres undefined) [REVERSETRIIODOTHYRONINE]
RBA [1]: 0.1%
log(%) [1]: -1
Activity [2]: 0.125%
log(%) [2]: -0.903

NC(Cc1cc(I)c(Oc2cc(Cl)c(O)c(Cl)c2)c(I)c1)C(=O)O (centres undefined)
RBA [1]: 4.5%
log(%) [1]: 0.653
Activity [2]: 3.8%
log(%) [2]: 0.58

CCCc1cc(Oc2c(C)cc(CC(N)C(=O)O)cc2C)ccc1O (centres undefined)
Activity [2]: 2.36%
log(%) [2]: 0.373

NC(Cc1cc(I)c(Oc2ccccc2)c(I)c1)C(=O)O (centres undefined)
Activity [2]: 1.24%
log(%) [2]: 0.093

CC(C)c1cc(Oc2c(I)cc(CC(N)C(=O)O)cc2I)cc(I)c1O (centres undefined)
Activity [2]: 55.36%
log(%) [2]: 1.743

NC(Cc1cc(I)c(Oc2cc(F)c(O)c(I)c2)c(I)c1)C(=O)O (centres undefined)
Activity [2]: 6.03%
log(%) [2]: 0.78

CC(C)c1cc(Oc2c(Br)cc(CC(N)C(=O)O)cc2Br)ccc1O (centres undefined)
RBA [1]: 36%
log(%) [1]: 1.56
Activity [2]: 30%
log(%) [2]: 1.477

Cc1cc(CC(N)C(=O)O)cc(I)c1Oc1ccc(O)c(I)c1 (centres undefined)
Activity [2]: 6.24%
log(%) [2]: 0.795

NC(Cc1ccc(Oc2ccc(O)c(I)c2)c(I)c1)C(=O)O (centres undefined) [DIIODOTHYRONINE]
RBA [1]: 0.5%
log(%) [1]: -0.301
Activity [2]: 0.056%
log(%) [2]: -1.252

Cc1cc(Oc2c(I)cc(CC(N)C(=O)O)cc2I)cc(C)c1N (centres undefined)
Activity [2]: 0.31%
log(%) [2]: -0.886

NC(Cc1cc(I)c(Oc2ccc(O)c3c2CCCC3)c(I)c1)C(=O)O (centres undefined)
RBA [1]: 8%
log(%) [1]: 0.903
Activity [2]: 18.08%
log(%) [2]: 1.257

Cc1cccc(Oc2c(I)cc(CC(N)C(=O)O)cc2I)c1 (centres undefined)
RBA [1]: 0.2%
log(%) [1]: -0.699
Activity [2]: 2.71%
log(%) [2]: 0.433

N[C@@H](Cc1cc(I)c(Oc2ccc(O)c(I)c2)c(I)c1)C(=O)O [LIOTHYRONINE]
RBA [3]: 9%
log(%) [3]: 0.954
Activity [2]: 100%
log(%) [2]: 2

NC(Cc1cc(I)c(Oc2cc(F)c(O)c(F)c2)c(I)c1)C(=O)O (centres undefined)
Activity [2]: 0.43%
log(%) [2]: -0.366

NC(Cc1cc(I)c(Sc2ccc(O)c(I)c2)c(I)c1)C(=O)O (centres undefined)
RBA [1]: 100%
log(%) [1]: 2
Activity [2]: 13.82%
log(%) [2]: 1.14

NC(Cc1cc(I)c(Oc2cccc(I)c2)c(I)c1)C(=O)O (centres undefined)
RBA [1]: 0.4%
log(%) [1]: -0.398
Activity [2]: 27.12%
log(%) [2]: 1.433

NC(Cc1cc(Br)c(Oc2cc(Br)c(O)c(Br)c2)c(Br)c1)C(=O)O (centres undefined)
Activity [2]: 0.065%
log(%) [2]: -1.187

Cc1cc(CC(N)C(=O)O)cc(C)c1Oc1ccc(O)c(I)c1 (centres undefined)
Activity [2]: 0.9%
log(%) [2]: -0.046

NC(Cc1cc(I)c(Oc2ccc(O)c([N+](=O)[O-])c2)c(I)c1)C(=O)O (centres undefined)
Activity [2]: 0.18%
log(%) [2]: -0.745

NC(Cc1cc(Cl)c(Oc2ccc(O)c(Cl)c2)c(Cl)c1)C(=O)O (centres undefined)
Activity [2]: 0.091%
log(%) [2]: -1.041

NC(Cc1cc(Br)c(Oc2ccc(O)c(Br)c2)c(Br)c1)C(=O)O (centres undefined)
Activity [2]: 4.63%
log(%) [2]: 0.666

Cc1cc(Oc2c(I)cc(CC(N)C(=O)O)cc2I)ccc1N (centres undefined)
Activity [2]: 0.036%
log(%) [2]: -1.444

NC(Cc1cc(Cl)c(Oc2cc(Cl)c(O)c(I)c2)c(I)c1)C(=O)O (centres undefined)
Activity [2]: 2.27%
log(%) [2]: 0.356

NC(Cc1cc(I)c(Oc2ccc(O)c(Br)c2)c(I)c1)C(=O)O (centres undefined)
Activity [2]: 23.78%
log(%) [2]: 1.376

COc1ccc(Oc2c(I)cc(CC(N)C(=O)O)cc2I)cc1C(C)C (centres undefined)
Activity [2]: 19%
log(%) [2]: 1.279

Cc1cc(CC(N)C(=O)O)cc(I)c1Oc1ccc(O)cc1 (centres undefined)
Activity [2]: 0.093%
log(%) [2]: -1.032

Cc1cc(Oc2c(I)cc(CC(N)C(=O)O)cc2I)c(C)cc1O (centres undefined)
RBA [1]: 0.1%
log(%) [1]: -1
Activity [2]: 0.18%
log(%) [2]: -0.745
